Patent publication US20120129953A1, “TINGLING AND SALIVATING COMPOSITIONS” (FIRMENICH SA, priority 2006, published 2012)

Assay: Blind test panel evaluation of sugar-free hard-boiled candies by trained evaluators
Format: in vivo
Settings: hard-boiled candy
Method: The composition above was then used to prepare sugar-free hard-boiled candies, as follows: Isomalt (100 g) and water (30 g) were mixed and heated to 160° C. in a copper pan. At 160° C., the copper pan was removed from the heat and placed in a warm water bath (40° C.). When the temperature reached 135° C., aspartame, acesulfame-K, the liquid acidulant mixture (1.0%) and flavor were added. The cooked mass was poured at ambient temperature into appropriate Teflon® molds.
The following Table I summarizes the ingredients and respective dosages used in the preparation as described here above of a control hard-boiled candy according to the prior art and containing only citric acid as acidulant and a candy prepared according to the invention.
The Control candy and the Invention Candy were then evaluated by a panel of trained evaluators, on a blind test, and the results of this evaluation are shown in FIG. 1.

For `O=C(O)CC(O)(CC(=O)O)C(=O)O` [Citric acid], the impact and sourness was “deliver the expected effect”.
